One assay addresses T1, Mer (Homo sapiens, UniProt Q12866).
T1 construct: host or cells: 293A cells (Thermo Fisher #R70507)
T1 sequence (Q12866 21-999): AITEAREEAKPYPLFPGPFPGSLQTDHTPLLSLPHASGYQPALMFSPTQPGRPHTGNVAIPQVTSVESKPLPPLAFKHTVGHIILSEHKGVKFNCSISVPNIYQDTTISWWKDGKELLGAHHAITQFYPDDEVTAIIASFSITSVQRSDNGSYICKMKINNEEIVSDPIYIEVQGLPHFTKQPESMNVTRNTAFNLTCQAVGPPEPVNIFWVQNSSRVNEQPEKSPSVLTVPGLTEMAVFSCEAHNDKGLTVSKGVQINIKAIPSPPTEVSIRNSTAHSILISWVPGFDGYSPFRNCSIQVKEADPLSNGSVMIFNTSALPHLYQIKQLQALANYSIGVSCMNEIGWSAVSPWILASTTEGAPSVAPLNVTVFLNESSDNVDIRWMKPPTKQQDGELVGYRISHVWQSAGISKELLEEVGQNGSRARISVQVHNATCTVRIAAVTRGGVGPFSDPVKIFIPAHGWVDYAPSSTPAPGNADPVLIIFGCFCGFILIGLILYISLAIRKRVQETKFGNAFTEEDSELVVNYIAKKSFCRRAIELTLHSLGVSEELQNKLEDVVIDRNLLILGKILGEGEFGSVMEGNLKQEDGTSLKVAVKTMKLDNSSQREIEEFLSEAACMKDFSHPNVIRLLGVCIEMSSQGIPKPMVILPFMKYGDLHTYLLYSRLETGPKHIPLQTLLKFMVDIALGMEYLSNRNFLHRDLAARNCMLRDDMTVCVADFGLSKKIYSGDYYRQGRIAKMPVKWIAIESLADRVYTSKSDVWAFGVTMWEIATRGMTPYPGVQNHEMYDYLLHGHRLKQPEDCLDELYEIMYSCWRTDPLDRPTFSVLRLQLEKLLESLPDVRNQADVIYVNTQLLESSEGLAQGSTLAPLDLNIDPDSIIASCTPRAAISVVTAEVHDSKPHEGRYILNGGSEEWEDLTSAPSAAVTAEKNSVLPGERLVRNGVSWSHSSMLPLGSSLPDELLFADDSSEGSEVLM
In words: Mer autophosphorylation ELISA in transient transfected 293A cells. The format is cell-based. To be noted: Table 3 Cellular Activities; MERTK-transfected 293A cells, phospho-Mer ELISA. The method in brief:
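293A cells transiently transfected with human MERTK DNA, replated after 24 h, then treated 1 h with 8-point compound dilutions in serum-free medium (0.3% DMSO). Lysates assayed by phospho-Mer sandwich ELISA against phospho-Mer standard; DMSO = 100%, reference inhibitor = 0% activity; IC50 by 4-parameter logistic fit.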
A general note: An ELISA detects its analyte on a solid surface through an enzyme-linked reagent.

A further assay concerns the target KDR (Homo sapiens, UniProt P35968). In words: KDR autophosphorylation ELISA in HUVEC cells. The assay is classed as cell-based. Set-up: endogenous in cells; host or cells: HUVEC (Lonza #C2519A). The following applies: Table 3 Cellular Activities, VEGF165-stimulated, phospho-KDR ELISA. The method in brief:
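Read-out: phospho-KDR ELISA on cell lysates, quantified against a phospho-KDR standard, normalised to VEGF-stimulated DMSO (100%) and unstimulated (0%) wells, IC50 by 4-parameter fit. Cells were 24 h serum-starved HUVEC given compound for 1 h, then 100 ng/mL VEGF165 for 5 min.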

pIC50: −log10 of the molar value. Some results are limits rather than exact numbers.

Chain of KDR (P35968 20-1356): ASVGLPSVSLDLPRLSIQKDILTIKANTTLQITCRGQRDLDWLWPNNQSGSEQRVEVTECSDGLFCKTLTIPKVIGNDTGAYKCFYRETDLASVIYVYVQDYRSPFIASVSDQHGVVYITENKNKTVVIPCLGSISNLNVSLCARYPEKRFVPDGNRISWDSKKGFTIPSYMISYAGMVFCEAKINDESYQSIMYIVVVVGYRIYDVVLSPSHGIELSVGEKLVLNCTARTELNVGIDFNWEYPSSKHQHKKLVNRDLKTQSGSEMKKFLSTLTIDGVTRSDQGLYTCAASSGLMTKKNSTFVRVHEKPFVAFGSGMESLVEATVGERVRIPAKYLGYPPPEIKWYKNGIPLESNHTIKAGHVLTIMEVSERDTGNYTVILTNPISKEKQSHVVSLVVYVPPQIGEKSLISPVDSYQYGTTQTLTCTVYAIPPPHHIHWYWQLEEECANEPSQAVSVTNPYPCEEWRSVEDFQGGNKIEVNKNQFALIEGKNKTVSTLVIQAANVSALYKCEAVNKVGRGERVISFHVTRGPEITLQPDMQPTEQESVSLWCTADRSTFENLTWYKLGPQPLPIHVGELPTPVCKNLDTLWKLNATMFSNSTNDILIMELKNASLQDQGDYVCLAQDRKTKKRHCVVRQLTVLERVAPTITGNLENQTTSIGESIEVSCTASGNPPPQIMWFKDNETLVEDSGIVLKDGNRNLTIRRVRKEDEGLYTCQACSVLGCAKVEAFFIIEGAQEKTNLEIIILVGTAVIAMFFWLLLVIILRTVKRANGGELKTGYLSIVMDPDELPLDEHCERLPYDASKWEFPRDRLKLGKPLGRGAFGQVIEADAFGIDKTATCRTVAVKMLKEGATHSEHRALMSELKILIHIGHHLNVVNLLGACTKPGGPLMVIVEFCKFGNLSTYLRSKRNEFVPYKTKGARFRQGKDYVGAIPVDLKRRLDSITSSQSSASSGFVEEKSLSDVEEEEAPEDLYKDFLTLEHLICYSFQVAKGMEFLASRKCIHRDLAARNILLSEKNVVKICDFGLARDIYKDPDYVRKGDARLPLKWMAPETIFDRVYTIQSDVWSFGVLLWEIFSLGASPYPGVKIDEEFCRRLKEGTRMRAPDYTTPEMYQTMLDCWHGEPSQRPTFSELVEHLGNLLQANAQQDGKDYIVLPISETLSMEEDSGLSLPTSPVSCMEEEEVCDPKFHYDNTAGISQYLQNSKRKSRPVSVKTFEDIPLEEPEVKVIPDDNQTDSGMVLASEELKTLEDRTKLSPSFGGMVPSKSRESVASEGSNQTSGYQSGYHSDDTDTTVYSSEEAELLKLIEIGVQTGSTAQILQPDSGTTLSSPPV

Broadly, the pIC50 is −log10 of the IC50, conventionally taken in molar units. Turning to `COc1cc2nccc(Oc3ccc(NC(=O)c4c(C)n(C)c(C)c(-c5cccs5)c4=O)cc3F)c2nc1OC` [Compound 168, N-[4-[(6,7-Dimethoxy-1,5-naphthyridin-4-yl)oxy]-3-fluorophenyl]-1,2,6-trimethyl-4-oxo-5-thiophen-2-ylpyridine-3-carboxamide], the negative-log IC50 (pIC50) at Mer and on KDR was at least 7.00 in each case.

In the case of `COCc1nc(C)c(-c2ccccn2)c(O)c1C(=O)Nc1ccc(Oc2ccnc3cc(OC)c(OC)nc23)c(F)c1` [Compound 195, N-[4-[(6,7-Dimethoxy-1,5-naphthyridin-4-yl)oxy]-3-fluorophenyl]-4-hydroxy-2-(methoxymethyl)-6-methyl-5-pyridin-2-ylpyridine-3-carboxamide], the pIC50 against Mer and against KDR was at least 7.00 each time.

`COc1cnc2c(Oc3ccc(NC(=O)c4cn(CCF)c(C)c(-c5ccc(C)s5)c4=O)cc3F)ccnc2c1` [Compound 329, 1-(2-Fluoroethyl)-N-[3-fluoro-4-[(7-methoxy-1,5-naphthyridin-4-yl)oxy]phenyl]-6-methyl-5-(5-methylthiophen-2-yl)-4-oxopyridine-3-carboxamide]: the negative logarithm of the IC50 (pIC50) against Mer is at least 7.00; on KDR it was 6.00 to 6.52.

`COc1cnc2c(Oc3ccc(NC(=O)c4cn(CCF)c(C)c(-c5ccsc5)c4=O)cc3F)ccnc2c1` [Compound 330, 1-(2-Fluoroethyl)-N-[3-fluoro-4-[(7-methoxy-1,5-naphthyridin-4-yl)oxy]phenyl]-6-methyl-4-oxo-5-thiophen-3-ylpyridine-3-carboxamide]: the pIC50 was at least 7.00 on Mer and 6.00 to 6.52 against KDR.

On to `COc1cnc2c(Oc3ccc(NC(=O)c4cn(CCF)c(C)c(-c5cccs5)c4=O)cc3F)ccnc2c1` [Compound 331, 1-(2-Fluoroethyl)-N-[3-fluoro-4-[(7-methoxy-1,5-naphthyridin-4-yl)oxy]phenyl]-6-methyl-4-oxo-5-thiophen-2-ylpyridine-3-carboxamide], for which the negative logarithm of the IC50 (pIC50) against Mer is at least 7.00; at KDR it was 6.00 to 6.52.

Turning to `COc1cc2nccc(Oc3ccc(NC(=O)c4cn(CCF)c(C)c(-c5ccsc5)c4=O)cc3F)c2nc1OC` [Compound 332, N-[4-[(6,7-Dimethoxy-1,5-naphthyridin-4-yl)oxy]-3-fluorophenyl]-1-(2-fluoroethyl)-6-methyl-4-oxo-5-thiophen-3-ylpyridine-3-carboxamide], the pIC50 at Mer and at KDR was at least 7.00 throughout.

With `COc1cc2nccc(Oc3ccc(NC(=O)c4cn(CCF)c(C)c(-c5ccco5)c4=O)cc3F)c2nc1OC` [Compound 333, N-[4-[(6,7-Dimethoxy-1,5-naphthyridin-4-yl)oxy]-3-fluorophenyl]-1-(2-fluoroethyl)-5-(furan-2-yl)-6-methyl-4-oxopyridine-3-carboxamide], the pIC50 is at least 7.00 against Mer and 6.52 to 7.00 at KDR.

Consider `COc1cnc2c(Oc3ccc(NC(=O)c4cn(CCF)c(C)c(-c5ccoc5)c4=O)cc3F)ccnc2c1` [Compound 334, 1-(2-Fluoroethyl)-N-[3-fluoro-4-[(7-methoxy-1,5-naphthyridin-4-yl)oxy]phenyl]-5-(furan-3-yl)-6-methyl-4-oxopyridine-3-carboxamide], for which the negative-log IC50 (pIC50) on Mer is at least 7.00; at KDR, 6.00 to 6.52.

For the compound `COc1nc2c(Oc3ccc(NC(=O)c4c(C)n(C)c(C)c(-c5ccco5)c4=O)cc3F)ccnc2cc1OCCC1CCC1` [Compound 337, N-[4-[[7-(2-Cyclobutylethoxy)-6-methoxy-1,5-naphthyridin-4-yl]oxy]-3-fluorophenyl]-5-(furan-2-yl)-1,2,6-trimethyl-4-oxopyridine-3-carboxamide], the pIC50 on Mer and on KDR was at least 7.00 throughout.

For the origin of these results see patent US20230151003A1, “COMPOUNDS AND METHODS OF USE” (Exelixis, Inc., priority 2020, published 2023).
